# Results taken from US20230028463A1, “METHOD FOR PRODUCING ACTINIC RAY-SENSITIVE OR RADIATION-SENSITIVE RESIN COMPOSITION, PATTERN FORMATION METHOD, AND METHOD FOR MANUFACTURING ELECTRONIC DEVICE” (FUJIFILM Corporation, priority 2020, published 2023).
# Test: Solubility of photoacid generator in 100 g of solvent at 25° C.
# Assay type: physicochemical
# Conditions: in 100 g of PGME at 25° C.
# Protocol: <Solubility (g) of Photoacid Generator in 100 g of Solvent at 25° C.>
# “A”: The solubility is more than 3 g
# “B”: The solubility is 0.5 to 3 g
# “C”: The solubility is less than 0.5 g
compound,measurement,value
c1ccc([S+]2CCCC2)cc1 [B-4],Solubility (25° C.) of photoacid generator in solvent,A (The solubility is more than 3 g)
